In PMC11061149, “Protein mimetic 2D FAST rescues alpha synuclein aggregation mediated early and post disease Parkinson’s phenotypes” (Nature Communications, 2024):
“And” between values parts separate entries of the source, which are not always exact repeats. Equal entries are not always repeated.

Key:
[1] = target: T1, α-Synuclein (αS) aggregation (Homo sapiens, UniProt P37840); assay: Thioflavin T (ThT) dye-based αS aggregation assay (de novo); type: biochemical; conditions: for ThT intensity relative to Synuclein alone (=1), Average / ThT intensity relative to Synuclein alone (=1), Trial 1-3: 100 µM αS, four days, equimolar; for ThT intensity relative to Synuclein alone (=1), Trial 1-3 / Relative ThT intensity of αS aggregation: individual trials; for remaining activity at 100 µM: 96 h, pH 6.5, 100 μM αS, 1×PBS pH 6.5, four days, ligand:αS equimolar, read-out: ThT signal/intensity relative to αS alone (100%); for Relative ThT intensity of αS aggregation, Average / Relative ThT intensity of αS aggregation: Synuclein alone about 1; for ThT intensity (raw), individual trials: αS aggregation after four days, NS132 derivatives equimolar (Fig. 2r)
T1 construct: made in house; host or cells: E. coli BL21(DE3)
Protocol: We used a 2D FAST approach in OPs to identify potent antagonists of the aggregation of αS. In this approach, we start with a library of monopyridyls with different functional groups. The library of monopyridyls was synthesized using 2-chloro-6-methyl-3-nitropyridine as a common precursor, which was treated with primary alcohols with diverse side chain functionalities via a one-pot reaction (Fig. 1B, a and see Supplementary information for synthetic details). […] We selected the side chains containing hydrophobic, polar, positively charged, and negatively charged functional groups, which mimic the side chains of the amino acids (Fig. 1C). […] The monopyridyl library was screened against the aggregation of 100 μM αS at an equimolar ratio using Thioflavin T (ThT) dye-based aggregation assay (Fig. 1B, b). […] The chloro-dipyridyl was reacted with a library of primary amines/thiols to synthesize a library of dipyridyls (Fig. 1B, e) using a one-pot reaction. […] However, a few dipyridyls required column chromatography to separate them from the starting material side chains because of their very high boiling point (7 out of 21 dipyridyls required column, Supplementary Fig. 1). […]
Aggregation Kinetics were measured according to a previously described protocol. […] The solutions were placed in a ThermoMixer (Eppendorf, Hamberg, Germany) at 37 °C with constant shaking at 1300 rpm (rpm). At different time points, 5 μL aliquots of each αS solution were added to 95 μL PBS containing 50 μM Thioflavin T (ThT) dye in a Costar black 96 well plate (Corning Inc., Kennebunk, ME). ThT fluorescence intensity was measured (λex = 450 nm and λem = 490 nm) on an Infinite M200PRO plate reader (Tecan, Männedorf, Switzerland), and plotted against time to give a sigmoidal curve typical of amyloid aggregation. For the single point ThT aggregation, 100 μM αS, in the absence and presence of ligands, was aggregated under the described conditions and the ThT fluorescence was reported at 96 h. The reported ThT intensity values are the average of each experiment conducted in triplicate, with the error bars representing the standard deviations or standard error of the mean (s.e.m.) as described in the main manuscript.

αS aggregation = target: T2, αS aggregation (Homo sapiens, UniProt P37840); assay: SDS-PAGE gel shift assay of soluble and insoluble αS fractions; type: biochemical; conditions: for αS band intensity, Total / Total (αS, SDS-PAGE gel shift), Trial 1-3: individual trials; for Total (αS, SDS-PAGE gel shift), Average: average of 3 trials; for Total (αS, SDS-PAGE gel shift), Average / Total (αS, SDS-PAGE gel shift), Trial 1-3: sheet S9D
T2 construct: made in house; host or cells: E. coli BL21(DE3)
Text: The inhibition of αS aggregation by NS41 was also confirmed by TEM images, which show an abundance (Supplementary Fig. 3a) and low amount (Supplementary Fig. 3b) of αS fibers in the absence and presence of NS41, respectively. We used SDS-PAGE (Sodium dodecyl sulfate polyacrylamide gel electrophoresis) as a complementary assay to validate ThT results and to further characterize the antagonist activity of the monopyridyls against αS aggregation. We used a total of four monopyridyls with varying antagonist activity against αS aggregation for the SDS-PAGE assay. The solutions of αS (±monopyridyls) were centrifuged and the soluble and insoluble fractions were subjected to SDS-PAGE analysis as reported earlier (Fig. 2d, Supplementary Fig. 4a, see details in methods section). The band intensities of the gels in SDS-PAGE assay were quantified using ImageJ software. In the absence of ligands, ~12% of αS was found in the soluble fraction and the rest was found in the insoluble fraction (Fig. 2d, Supplementary Fig. 4a, b). In the presence of NS41 at molar ratios of 1:1 and 2:1 (NS41:αS), 48% and 73% of αS protein were found in the soluble fraction, respectively, and the rest of αS protein was found in the insoluble fraction (Fig. 2d, Supplementary Fig. 4a, b). […] The antagonist activity of the monopyridyls corroborated well from both ThT and the SDS-PAGE assays (Fig. 2a–d, Supplementary Fig. 4a, b). The higher the antagonist activity of monopyridyls against αS aggregation, the lower the ThT intensity and the higher the amount of αS remained in the soluble fraction (Fig. 2a–d, Supplementary Fig. 4a, b). […] It is important to note that NS41 contains a carboxyl (COOH) functional group side chain. […] We have also shown in that work that the foldamer binds to the N-terminus of αS because of its negatively charged COOH functional group interaction with the positively charged lysine residues of αS[24]. […] Additionally, we have also shown that the OPs with the COOH functional group are very effective inhibitors of aggregation of other amyloid proteins that contain lysine amino acid via the formation of salt bridges[30]–[34].
An αS solution (100 µM) was prepared in PBS with or without ligands and shaken ([…], 37 °C) until the fluorescence plateaued, as observed using the ThT aggregation assay, indicative of the aggregation of αS as a control (four days for most experiments unless otherwise mentioned). The solutions were separated into soluble and insoluble fractions by centrifugation at 22,000 × g for 20 min. The fractions were diluted in 2×Laemmli protein sample loading buffer (Containing 2.1% SDS, Bio-rad, Hercules, CA), boiled at 95 °C for 5 min, and ran on a 12% Mini-PROTEAN precast protein gel (Bio-rad, Hercules, CA). The gel was visualized using ChemiDoc MP Imaging System (Bio-rad, Hercules, CA) and band intensity was quantified using Image Lab image acquisition and analysis software (Bio-rad, Hercules, CA). Densitometry values were averaged from three technical replicates and reported with the error bars representing their standard deviations.

Cc1ccc(NC(=O)c2ccc(NC(=O)c3ccc([N+](=O)[O-])c(NCC4CCCCC4)n3)c(NCC3CCCCC3)n2)c(OCC(=O)O)n1 [NS126]
ThT intensity relative to Synuclein alone (=1), Average [1]: 0.4588
ThT intensity relative to Synuclein alone (=1), Trial 1-3 [1]: 0.4925 and 0.4832 and 0.4007
remaining activity at 100 µM [1]: 45.9%

Cc1ccc(NC(=O)c2ccc([N+](=O)[O-])c(NCCc3c[nH]c4ccccc34)n2)c(OCC(=O)O)n1 [NS72]
ThT intensity relative to Synuclein alone (=1), Average [1]: 0.08383
ThT intensity relative to Synuclein alone (=1), Trial 1-3 [1]: 0.08532 and 0.05997 and 0.1062

Cc1ccc([N+](=O)[O-])c(OCC2CCCCC2)n1 [RD222]
ThT intensity relative to Synuclein alone (=1), Average [1]: 0.6644
ThT intensity relative to Synuclein alone (=1), Trial 1-3 [1]: 0.6754 and 0.635 and 0.6826
αS band intensity, Total, Average (αS aggregation; sheet S4B): 100
αS band intensity, Total (αS aggregation; sheet S4B): 97.5 and 99 and 103.5

Cc1ccc(NC(=O)c2ccc([N+](=O)[O-])c(NCCc3ccc(O)cc3)n2)c(OCC(=O)O)n1 [NS160]
ThT intensity relative to Synuclein alone (=1), Average [1]: 0.7268
ThT intensity relative to Synuclein alone (=1), Trial 1-3 [1]: 0.8429 and 0.6915 and 0.6459
Relative ThT intensity of αS aggregation, Average ([1]; sheet S5A): 0.7268
Relative ThT intensity of αS aggregation ([1]; sheet S5A): 0.8429 and 0.6915 and 0.6459
αS band intensity, Total, Average (αS aggregation; sheet S5B): 100
αS band intensity, Total (αS aggregation; sheet S5B): 103.4 and 101 and 95.6

Cc1ccc(NC(=O)c2ccc(NC(=O)c3ccc([N+](=O)[O-])c(NCCc4c[nH]c5ccccc45)n3)c(NCC3CCCCC3)n2)c(OCC(=O)OC(C)(C)C)n1 [NS132-P]
remaining activity at 100 µM [1]: 80%
ThT intensity (raw), individual trials [1]: 15241 and 16712 and 15019
amount of αS in the insoluble fraction (αS aggregation; 100 µM αS, four days, equimolar): 84%
Total (αS, SDS-PAGE gel shift), Average (αS aggregation; NS132-P 0.5 eq.): 0.8767
Total (αS, SDS-PAGE gel shift), Trial 1-3 (αS aggregation; NS132-P 0.5 eq.): 0.83 and 0.85 and 0.95
Total (αS, SDS-PAGE gel shift), Average (αS aggregation; NS132-P 1.0 eq.): 1.02
Total (αS, SDS-PAGE gel shift), Trial 1-3 (αS aggregation; NS132-P 1.0 eq.): 1.069 and 1.01 and 0.98

Cc1ccc(NC(=O)c2ccc(NC(=O)c3ccc([N+](=O)[O-])c(Cl)n3)c(NCC3CCCCC3)n2)c(OCC(=O)O)n1 [NS122]
remaining activity at 100 µM [1]: 30%
Relative ThT intensity of αS aggregation, Average ([1]; sheet S7A): 0.339
Relative ThT intensity of αS aggregation ([1]; sheet S7A): 0.3017 and 0.3699 and 0.3455
ThT intensity (raw), individual trials [1]: 5423 and 5518 and 5332
αS band intensity, Total, Average (αS aggregation; sheet S7B): 100
αS band intensity, Total (αS aggregation; sheet S7B): 101.8 and 101.7 and 96.5

Cc1ccc(NC(=O)c2ccc(NC(=O)c3ccc([N+](=O)[O-])c(NCCc4ccc(O)cc4)n3)c(NCC3CCCCC3)n2)c(OCC(=O)O)n1 [NS168]
ThT intensity relative to Synuclein alone (=1), Average [1]: 0.02443
ThT intensity relative to Synuclein alone (=1), Trial 1-3 [1]: 0.02302 and 0.02387 and 0.02641
remaining activity at 100 µM [1]: 2.7%
